Experimental data taken from patent US9156829B2, “Cycloalkyl and heterocycloalkyl compounds as orexin receptor antagonists” (Takeda Pharmaceutical Company Limited, priority 2014, dated 2015).

How the values were obtained:
[1] = target: human orexin receptor 1 (Homo sapiens (Human), UniProt O43613); experiment: Orexin antagonist activity, intracellular calcium FLIPR assay, RBL-2H3 cells expressing human orexin receptor 1; format: cell-based; details: RBL-2H3 cells stably expressing human orexin receptor 1; orexin-A at approx. 80% maximal response; compound added 15 minutes before; read-out: Human Orexin1R IC50
[2] = target: human orexin receptor 2 (Homo sapiens (Human), UniProt O43614); experiment: Orexin antagonist activity, intracellular calcium FLIPR assay, RBL-2H3 cells expressing human orexin receptor 2; format: cell-based; details: RBL-2H3 cells stably expressing human orexin receptor 2; orexin-A at approx. 80% maximal response; compound added 15 minutes before; read-out: Human Orexin2R IC50
Sequence of human orexin receptor 2 (O43614 whole entry): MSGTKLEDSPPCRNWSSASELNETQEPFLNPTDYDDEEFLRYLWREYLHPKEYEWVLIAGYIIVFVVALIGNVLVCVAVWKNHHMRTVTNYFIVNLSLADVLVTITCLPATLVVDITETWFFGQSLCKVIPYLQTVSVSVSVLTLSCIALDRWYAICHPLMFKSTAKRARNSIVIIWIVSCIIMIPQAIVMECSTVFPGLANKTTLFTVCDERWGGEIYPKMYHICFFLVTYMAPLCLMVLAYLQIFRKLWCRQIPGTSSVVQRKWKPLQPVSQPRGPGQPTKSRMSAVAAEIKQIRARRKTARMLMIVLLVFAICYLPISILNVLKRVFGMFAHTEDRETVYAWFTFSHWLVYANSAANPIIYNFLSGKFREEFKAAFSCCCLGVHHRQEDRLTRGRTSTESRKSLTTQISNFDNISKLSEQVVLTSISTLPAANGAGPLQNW

Sequence of human orexin receptor 1 (O43613 whole entry): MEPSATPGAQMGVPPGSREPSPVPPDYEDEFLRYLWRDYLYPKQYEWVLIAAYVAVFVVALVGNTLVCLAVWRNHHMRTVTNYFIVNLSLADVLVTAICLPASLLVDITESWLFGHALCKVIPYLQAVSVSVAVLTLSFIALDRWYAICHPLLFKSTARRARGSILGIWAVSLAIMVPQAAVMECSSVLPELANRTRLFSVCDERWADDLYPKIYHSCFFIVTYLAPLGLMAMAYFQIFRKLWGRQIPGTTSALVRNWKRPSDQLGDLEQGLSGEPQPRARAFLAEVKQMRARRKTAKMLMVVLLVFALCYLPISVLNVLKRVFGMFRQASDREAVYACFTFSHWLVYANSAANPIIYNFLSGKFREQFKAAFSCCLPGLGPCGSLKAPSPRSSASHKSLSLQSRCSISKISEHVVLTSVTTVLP

Row | IC50 [1] | IC50 [2] | Compound
1 | 12 nM | > 10000 nM | O=C(N[C@H]1CC(F)(F)C[C@@H]1Nc1ncc(C(F)(F)F)cc1F)c1ccccc1-n1nccn1 [Example 132, N-[(1S,2S)-4,4-Difluoro-2-{[3-fluoro-5-(trifluoromethyl)pyridin-2-yl]amino}cyclopentyl]-2-(2H-1,2,3-triazol-2-yl)benzamide]
2 | 166 nM | > 10000 nM | C[C@]1(Nc2cnc(C(F)(F)F)cn2)CCC[C@@H]1NC(=O)c1c(F)cccc1F [Example 88, 2,6-Difluoro-N-[(1S,2S)-2-methyl-2-{[5-(trifluoromethyl)pyrazin-2-yl]amino}cyclopentyl]benzamide]
3 | 576 nM | 6420 nM | COc1cccc(OC)c1C(=O)N[C@H]1CCC[C@@H]1Oc1cc(C(F)(F)F)ccn1 [Example 21, 2,6-Dimethoxy-N-[(1S,2S)-2-{[4-(trifluoromethyl)pyridin-2-yl]oxy}cyclopentyl]benzamide]
4 | 11 nM | > 10000 nM | Cc1noc(-c2ccccc2C(=O)N[C@H]2CCC[C@]2(C)Nc2cnc(C(F)(F)F)cn2)n1 [Example 145, 2-(3-Methyl-1,2,4-oxadiazol-5-yl)-N-[(1S,2S)-2-methyl-2-{[5-(trifluoromethyl)pyrazin-2-yl]amino}cyclopentyl]benzamide]
5 | 766 nM | > 10000 nM | O=C(NC1CCCC1Cc1ccc(C(F)(F)F)cn1)c1ccccc1-n1nccn1 (stereo not shown) [Example 24, 2-(2H-1,2,3-Triazol-2-yl)-N-(2-{[5-(trifluoromethyl)pyridin-2-yl]methyl}cyclopentyl)benzamide]
6 | 35 nM | > 10000 nM | Cc1nc(C(F)(F)F)cnc1N[C@H]1CCC[C@@H]1NC(=O)c1cc(F)ccc1-c1ncccn1 [Example 80, 5-Fluoro-N-[(1S,2S)-2-{[3-methyl-5-(trifluoromethyl)pyrazin-2-yl]amino}cyclopentyl]-2-(pyrimidin-2-yl)benzamide]
7 | 166 nM | > 10000 nM | O=C(N[C@H]1CCC[C@@H]1Nc1cnc(C(F)(F)F)cn1)c1c(-n2nccn2)ccc(F)c1F [Example 56, 2,3-Difluoro-6-(2H-1,2,3-triazol-2-yl)-N-[(1S,2S)-2-{[5-(trifluoromethyl)pyrazin-2-yl]amino}cyclopentyl]benzamide]
8 | 297 nM | 1610 nM | COc1cccc(OC)c1C(=O)N(C1CCC1)[C@H]1CCC[C@@H]1Nc1ccc(C(F)(F)F)cn1 [Example 68, N-Cyclobutyl-2,6-dimethoxy-N-[(1S,2S)-2-{[5-(trifluoromethyl)pyridin-2-yl]amino}cyclopentyl]benzamide]
9 | 153 nM | > 10000 nM | O=C(N[C@H]1CCC[C@@H]1Nc1ccc(C(F)(F)F)cn1)c1cc(F)cc(F)c1-n1nccn1 [Example 99, 3,5-Difluoro-2-(2H-1,2,3-triazol-2-yl)-N-[(1S,2S)-2-{[5-(trifluoromethyl)pyridin-2-yl]amino}cyclopentyl]benzamide]
10 | 368 nM | > 10000 nM | O=C(N[C@H]1CCC[C@@H]1Nc1ccc(Br)cn1)c1ccccc1-n1nccn1 [Example 118, N-[(1S,2S)-2-[(5-Bromopyridin-2-yl)amino]cyclopentyl]-2-(2H-1,2,3-triazol-2-yl)benzamide]
11 | 49 nM | > 10000 nM | O=C(N[C@H]1CCC[C@@H]1Nc1cnc(C(F)(F)F)cn1)c1ccccc1-c1ncccn1 [Example 38, 2-(Pyrimidin-2-yl)-N-[(1S,2S)-2-{[5-(trifluoromethyl)pyrazin-2-yl]amino}cyclopentyl]benzamide]
12 | 340 nM | > 10000 nM | COc1ccc(C)cc1C(=O)N[C@H]1CCC[C@@H]1Nc1cnc(C(F)(F)F)cn1 [Example 37, 2-Methoxy-5-methyl-N-[(1S,2S)-2-{[5-(trifluoromethyl)pyrazin-2-yl]amino}cyclopentyl]benzamide]
13 | 240 nM | > 10000 nM | COc1cccc(OC)c1C(=O)N[C@H]1CCC[C@@H]1Nc1ccc(C(F)(F)F)cn1 [Example 1, 2,6-Dimethoxy-N-[(1S,2S)-2-{[5-(trifluoromethyl)pyridin-2-yl]amino}cyclopentyl]benzamide]
14 | 792 nM | 3800 nM | O=C(NC1CCCC1Cc1cc(C(F)(F)F)ccn1)c1ccccc1-n1nccn1 (single isomer, unassigned) [Example 23, 2-(2H-1,2,3-Triazol-2-yl)-N-(2-{[4-(trifluoromethyl)pyridin-2-yl]methyl}cyclopentyl)benzamide]
15 | 66 nM | > 10000 nM | CC1(Nc2ncc(C(F)(F)F)cn2)CCCC1NC(=O)c1ncccc1-c1ncccn1 (stereo not shown) [Example 153, N-(2-Methyl-2-{[5-(trifluoromethyl)pyrimidin-2-yl]amino}cyclopentyl)-3-(pyrimidin-2-yl)pyridine-2-carboxamide]
16 | 450 nM | > 10000 nM | O=C(N[C@H]1CCC[C@@H]1Nc1cnc(C(F)(F)F)cn1)c1ncccc1C1CC1 [Example 63, 3-Cyclopropyl-N-[(1S,2S)-2-{[5-(trifluoromethyl)pyrazin-2-yl]amino}cyclopentyl]pyridine-2-carboxamide]
17 | 34 nM | > 10000 nM | CCc1nc(C(F)(F)F)cnc1N[C@H]1CCC[C@@H]1NC(=O)c1ccccc1-n1nccn1 [Example 111, N-[(1S,2S)-2-{[3-Ethyl-5-(trifluoromethyl)pyrazin-2-yl]amino}cyclopentyl]-2-(2H-1,2,3-triazol-2-yl)benzamide]
18 | 520 nM | > 10000 nM | CCc1cnc(N[C@H]2CCC[C@@H]2NC(=O)c2cc(C)ccc2-n2nccn2)nc1 [Example 4, N-[(1S,2S)-2-[(5-Ethylpyrimidin-2-yl)amino]cyclopentyl]-5-methyl-2-(2H-1,2,3-triazol-2-yl)benzamide]
19 | 35 nM | > 10000 nM | CC1(Nc2ncc(C(F)(F)F)cn2)CCCC1NC(=O)c1ccccc1-n1nccn1 (stereo not shown) [Example 93, N-(2-Methyl-2-{[5-(trifluoromethyl)pyrimidin-2-yl]amino}cyclopentyl)-2-(2H-1,2,3-triazol-2-yl)benzamide]
20 | 726 nM | 2000 nM | COc1cccc(OC)c1C(=O)N[C@H]1CCC[C@@H]1Nc1cccc(C(F)(F)F)n1 [Example 27, 2,6-Dimethoxy-N-[(1S,2S)-2-{[6-(trifluoromethyl)pyridin-2-yl]amino}cyclopentyl]benzamide]
21 | 5 nM | > 10000 nM | CCc1nc(C(F)(F)F)cnc1N[C@H]1CCC[C@@H]1NC(=O)c1cc(F)ccc1-c1ncccn1 [Example 158, N-[(1S,2S)-2-{[3-Ethyl-5-(trifluoromethyl)pyrazin-2-yl]amino}cyclopentyl]-5-fluoro-2-(pyrimidin-2-yl)benzamide]
22 | 28 nM | > 10000 nM | CC1(Nc2ncc(C(F)(F)F)cn2)CCCC1NC(=O)c1ccccc1-n1nccn1 (single isomer, unassigned) [Example 94, N-(2-Methyl-2-{[5-(trifluoromethyl)pyrimidin-2-yl]amino}cyclopentyl)-2-(2H-1,2,3-triazol-2-yl)benzamide]
23 | 12 nM | 8830 nM | O=C(N[C@H]1CCC[C@@H]1Nc1ncc(C(F)(F)F)nc1C1CC1)c1ncccc1-n1nccn1 [Example 142, N-[(1S,2S)-2-{[3-Cyclopropyl-5-(trifluoromethyl)pyrazin-2-yl]amino}cyclopentyl]-3-(2H-1,2,3-triazol-2-yl)pyridine-2-carboxamide]
